Data published in patent US20080051393A1, “Novel cannabinoids and methods of use” (Eastern Virginia Medical School, priority 2006, published 2008).

Columns and labels:
[1] = target: T1, human CB1 receptor (Homo sapiens, UniProt P21554); assay: CB1 receptor binding, [3H]CP55,940 displacement; conditions: HEK-293 membranes, means ± SE, N = 3
T1 construct: expressed in transfected cells; host or cells: HEK-293
Experimental: (§1) Membrane Preparations. HEK-293 cells stably expressing the human CB1 receptor were cultured in DMEM with 10% FBS and Chinese Hamster Ovary (CHO) cells stably expressing the human CB2 receptor were cultured in DMEM with 10% FCS. Cells were harvested by replacement of the media with cold phosphate-buffered saline containing 1 mM EDTA followed by centrifugation at 1000×g for 5 min at 4° C. The pellet was resuspended in 50 mM Tris-HCl containing 320 mM sucrose, 2 mM EDTA and 5 mM MgCl2 (pH 7.4) (centrifugation buffer), then centrifuged at 1000×g for 10 min at 4° C. and the resulting supernatant was saved. This process was repeated twice. The supernatant fractions were combined and centrifuged at 40,000×g for 30 min at 4° C. The resulting P2 pellet was resuspended in assay buffer (50 mM Tris-HCl (pH 7.4), 3 mM MgCl2, 0.2 mM EGTA, and 100 mM NaCl) and protein was measured. Membranes were stored at −80° C. until use.
(§2) Receptor Binding. Membrane homogenates (50 μg) were incubated with 0.5 nM [^3H]CP55,940 in the presence of varying concentrations (1 nM-10 μM) of test compounds in 0.5 ml of buffer containing BSA (5 mg/ml). Non-specific binding was measured in the presence of 1 μM CP55,940. The assay was incubated at 30° C. for 1 hr and terminated by addition of ice cold 50 mM Tris-HCl+BSA (1 mg/ml) (pH 7.4) followed by filtration under vacuum through Whatman GF/B glass fiber filters with 3 washes with cold Tris buffer. Bound radioactivity was determined by liquid scintillation spectrophotometry at 50% efficiency after extraction by shaking samples for 30-60 min with Budget-Solve scintillation fluid. Data are reported as the mean ±SEM of three experiments, each performed in triplicate. Ki values were calculated from displacement data using EBDA (Equilibrium Binding Data Analysis; BIOSOFT, Milltown, N.J.).

[2] = system: ICR mice; assay: Tetrad model: antinociception in the tail-flick procedure (TF); format: in vivo; conditions: Mus musculus, iv, 20 min; i.v., tail-flick 20 min after injection; read-out: T.F. ED50
Excerpt: (§3) ICR Mice and Materials. Male ICR mice (Harlan Laboratories, Indianapolis, Ind.) weighing between 24 to 30 g were used in all experiments. Mice were maintained on a 14:10-hr light/dark cycle with food and water available ad lib. All test groups consisted of 6 to 12 mice. Analogs dissolved in a vehicle consisting of ethanol, emulphor and saline in a ratio of 1:1:18. All chemicals for receptor binding studies were purchased from Sigma (St. Louis, Mo.) except the following: Dulbeco's modified Eagle's medium (DMEM) from GIBCO BRL (Grand Island, N.Y.), Whatman GF/B glass fiber filters from Fischer Scientific (Pittsburg, Pa.), fetal calf serum (FCS) and fetal bovine serum (FBS) from HyClone Laboratories (Logan, Utah) and Budget-Solve scintillation fluid from RPI Corp. (Mount Prospect, Ill.).
(§4) Behavioral Evaluations. All animals were allowed to acclimate to the observation room overnight. Behavioral effects were assessed in the tetrad model to measure potency in decreasing spontaneous activity (SA), antinociception [tail-flick procedure, TF], rectal temperature (RT) and relative immobility (RI) catalepsy. The baselines for tail-flick latency (2-4 sec) and rectal temperature were determined prior to i.v. injections. Baseline rectal temperatures were measured using a telethermometer and a thermometer probe inserted to 25 mm (Yellow Springs Instrument Co., Yellow Springs, Ohio). The mice treated i.v. with an analog were placed in individual photocell activity chambers 5 min later. Spontaneous activity wasp monitored for 10 min in a Digiscan Animal Activity Monitor (Omnitech Electronice, Inc., Columbus, Ohio) as measured by the number of interruptions of 16 photocell beams per chamber. The total number of beam interruptions during the 10-min period was determined and presented as total counts. The mice were then assessed at 20 min following the i.v. injection for antinociception using the tail-flick reaction time to a heat stimulus. A 10-sec maximum latency was used in order to avoid tail injury. The results are presented as % MPE and are calculated as follows: % MPE=[(test latency-control latency)/(10 sec−control latency)]×100.
(§5) Data analysis. Based on data obtained from numerous previous in vivo studies with cannabinoids, maximal cannabinoid effects in each in vivo pharmacological procedure were estimated as follows: 90% inhibition of spontaneous activity, 100% MPE in the tail flick procedure, and −6° C. change in rectal temperature. Means and standard error (S.E.) were calculated for % MPE, number of photocell disruptions, % ring immobility and Δ° C. Analysis of variance (ANOVA) was used to determine significant differences between control and treatment groups followed by Dunnett's t-test post-hoc analysis. Statistical analysis was performed using StatView, version 5.0 (SAS Institute, Cary, N.C.). Significance was defined as a “p”<0.05. ED50's were defined as the dose at which half maximal effect occurred. For drugs that produced one or more cannabinoid effect, ED50's were calculated separately using least-squares linear regression on the linear part of the dose-effect curve for each measure in the mouse tetrad, plotted against log10 transformation of the dose.

[3] = system: ICR mice; assay: Tetrad model: inhibition of spontaneous activity (SA); format: in vivo; conditions: Mus musculus, iv, spontaneous activity 5-15 min after injection; read-out: S.A. ED50
Excerpt: as §3, §4, §5

[4] = target: T2, human CB2 receptor (Homo sapiens, UniProt P34972); assay: CB2 receptor binding, [3H]CP55,940 displacement; conditions: CHO membranes, means ± SE, N = 3
T2 construct: expressed in transfected cells; host or cells: CHO
Experimental: as §1, §2

[5] = system: ICR mice; assay: Tetrad model: relative immobility (RI), ring-immobility test; format: in vivo; conditions: Mus musculus, iv, 40 min; i.v., ring immobility 40 min after injection; read-out: R.I. ED50
Excerpt: as §3
Rectal temperature was measured 30 min after the i.v. injection. The change in rectal temperature (Δ° C.) following analog administration was calculated for each animal. Relative immobility (catalepsy) was measured 40 min after the i.v. injection by the ring-immobility test. Mice were placed on a ring 5.5 cm in diameter attached to a stand at a height of 16 cm. The amount of time the mice spent motionless on the ring during the 5-minute procedure was measured, with the criteria of immobility being defined as the absence of all voluntary movements, including whisker movement, but excluding respiration. The percent immobility was calculated as: % immobility=[time immobile (sec)]/[length of session (sec)]×100. Mice that fell from the ring or actively jumped were allowed five attempts. After the fifth escape these mice were removed from the ring and not included in the calculations. Data were collected from 6-12 mice for each condition tested.
as §5

[6] = system: retinal ganglionic cells (RGC); assay: Rat NMDA model: retinal flat mounts, RGC count; format: in vivo; conditions: NMDA treatment only
Experimental: Rat NMDA Model. To mimic glaucomatous damage to the retina without a potentially confounding effect on IOP, retinal damage was induced by NMDA in a rat model. Following baseline measurements, e.g. IOP, ERG, slit lamp, fundus photography, heart rate and blood pressure, N-methyl D-aspartate (NMDA, 2 μl of 10 mM) was injected intravitreally to induce RGC damage. […] For positive identification, a hand scanner was used each time the rat was examined. This was necessary since the examiners will be masked as to treatment group. Treatment groups consisted of either NMDA only (control), O-1812 (0.1%) or O-2545 (0.1%), O-1812 (0.1%)+SR-141716 (2 mM), O-2545 (0.1%)+SR-141716 (2 mM), O-1812 (0.1%)+SR-144258 (2 mM) and O-2545 (0.1%)+SR-144258 (2 mM). All experiments were conducted in accordance with the policies of the Institutional Animal Care and Use Committee and the ARVO policy on use of animals in experiments. A minimum of two baseline ERG measurements was recorded 1 wk prior, 1 wk and 2 wk post injection. At the end of each experiment, rats were sacrificed and their eyes were preserved for histological assessment of effects on the retina and optic nerve.
Histology. For retinal flat mounts, retinas were dissected from formalin fixed whole eyes, mounted on superfrost glass slides, stained with hematoxylin and eosin and digitally photographed. For analysis, the retina was divided into four quadrants. A minimum of five 50 μm^2 sections per quadrant were used to count cell number. The cell sections were selected to be equidistant from the optic cup for all quadrants. For optic nerve experiments, the optic nerve was dissected at the margin of the optic disk and embedded in cryo media. Sections of 10 μm thickness were cut and mounted on superfrost glass slides and stained with hematoxylin and eosin. The slides were digitally photographed.

[7] = system: IOP in a rat glaucoma model; assay: Combination therapy: IOP in a rat glaucoma model; format: in vivo, Sprague Dawley rats
Excerpt: (§6) Rat Glaucoma Model. Compared to acute studies, a chronic rat model of glaucoma was generated. The rats were made glaucomatous by ligating three vortex veins (Hosseini, A. et al. (2006) Chronic topical administration of WIN-55-212-2 maintinas a reduction in IOP in a rat glaucoma model without adverse effects. Exp. Eye Res. 82(5):753-9). More specifically, ocular hypertension was induced in Sprague-Dawley rats by ligating 3 of 4 episcleral veins of the right eye using 9.0 nylon sutures under anesthesia with 3 mg/Kg acepromazine and 20 mg/Kg ketamine. Within 6 wk, IOP increased by at least 5 mm Hg in the operated eye. This intervention produced at least a 30% increase in IOP in the operated eye and lasted for up to 60 weeks. During this time, a 30% loss of retinal function was documented by ERG. […] Thus, the model accurately mimics the progressive damage that occurs in patients with glaucoma.
(§7) Measurements of Intraocular Pressure. IOP elevation was measured under mild sedation using a calibrated Goldmann tonometer modified for rats. Three determinations were averaged for each eye. To account for diurnal variation, all IOP's were measured between 11 am and 1 pm during the daily trough period.
Combination Therapy. Since cannabinoids and timolol, which are both known to reduce IOP, have different mechanisms of action, there is potential for a synergistic effect. The combination of timolol and a synthetic cannabinoid (WIN55 212-2, O-1812, or O-2545) to reduce IOP in a chronic rat model of ocular hypertension was examined. Surgical ligation of three of the four episcleral veins in one eye of Sprague Dawley rats caused a long lasting (>44 week) increase in IOP. IOP was measured by Goldmann tonometry at baseline (−30), 0, 30, 60 and 120 min, as was heart rate and blood pressure. For combination therapy, after baseline IOP measurement, timolol 0.5% was applied topically followed 30 min later by WIN55 212-2 1.0%, O-1812 1.0%, or O-2545 1.0%. In another experiment, O-1812 1.0% and O-2545 1.0% were administered simultaneously. An analysis for ocular irritation was performed by slit lamp examination (SLE) at baseline and 150 min.

[8] = system: IOP in a rat glaucoma model; assay: IOP after topical application in chronic rat glaucoma model; format: in vivo, Sprague-Dawley rats; conditions: 1.0% topical
Excerpt: as §6, §7
Therapeutic Regimen. For IOP Measurements (Topical application) Baseline IOP, heart rate, blood pressure and normal ocular anatomy were documented prior to drug administration. The drugs WIN 55-212-2 (0.1%, 1.0%), O-1812 (0.01%, 0.1%, 1.0%), O-2545 (0.1%, 1.0%) were all dissolved in Tocrisolve™ (vehicle). IOP, heart rate, and blood pressure were measured prior to and after 30, 60 and 120 min after topical administration. Contralateral eyes served as vehicle treated controls.

T2 sequence (P34972 whole entry): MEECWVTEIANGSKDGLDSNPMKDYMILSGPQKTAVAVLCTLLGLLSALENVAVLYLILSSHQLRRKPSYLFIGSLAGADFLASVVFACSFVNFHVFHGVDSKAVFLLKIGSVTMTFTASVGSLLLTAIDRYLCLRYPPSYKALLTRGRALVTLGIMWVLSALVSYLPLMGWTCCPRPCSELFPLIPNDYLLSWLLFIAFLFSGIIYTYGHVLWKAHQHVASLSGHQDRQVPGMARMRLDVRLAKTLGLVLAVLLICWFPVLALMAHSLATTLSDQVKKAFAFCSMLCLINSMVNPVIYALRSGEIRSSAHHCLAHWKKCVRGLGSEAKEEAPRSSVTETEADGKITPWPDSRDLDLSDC
T1 sequence (P21554 whole entry): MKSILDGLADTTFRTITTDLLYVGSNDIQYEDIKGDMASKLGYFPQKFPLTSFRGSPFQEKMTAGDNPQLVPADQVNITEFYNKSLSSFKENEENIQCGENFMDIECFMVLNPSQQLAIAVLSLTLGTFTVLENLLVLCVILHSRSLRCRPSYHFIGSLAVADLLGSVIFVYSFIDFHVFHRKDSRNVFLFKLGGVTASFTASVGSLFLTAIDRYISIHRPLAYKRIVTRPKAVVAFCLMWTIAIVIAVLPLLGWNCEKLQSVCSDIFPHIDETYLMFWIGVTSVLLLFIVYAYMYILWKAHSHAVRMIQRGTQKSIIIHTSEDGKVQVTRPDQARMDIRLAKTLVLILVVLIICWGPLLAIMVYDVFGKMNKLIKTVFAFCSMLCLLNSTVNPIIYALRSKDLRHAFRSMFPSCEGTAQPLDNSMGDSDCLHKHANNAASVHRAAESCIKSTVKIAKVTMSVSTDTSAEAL

SMILES	Ki [1] [nM]	ED50 [2] [mg/kg]	ED50 [3] [mg/kg]	Ki [4] [nM]	ED50 [5] [mg/kg]	Reduction of RGC cell density [6] [%]	IOP at 120 min (% Baseline) ([7]; 0.5% topical alone, 120 min)	Time for which IOP was significantly decreased ([7]; timolol alone, prior experiments in this model) [min]	Time for which significant IOP reduction was maintained [8]	Effect on IOP at 30 min ([8]; 30 min)	IOP after 60 min (% of Baseline) ([8]; 60 min)
C[C@H](CO)NC(=O)CCC/C=C\C/C=C\C/C=C\C/C=C\C(C)(C)CCCCn1cccn1 [Compound O-2954]	127 ± 2.84	0.19	0.14	301 ± 35.6	0.57						
C[C@H](CO)NC(=O)CCC/C=C\C/C=C\C/C=C\C/C=C\C(C)(C)CCCCn1cncn1 [Compound O-2955]	298 ± 33.9	1.94	2.03	215 ± 40.5	2.21						
C[C@H](CO)NC(=O)CCC/C=C\C/C=C\C/C=C\C/C=C\C(C)(C)CCCCN1CCOCC1 [Compound O-4316]	3.88 ± 0.22	0.04	0.11	22.4 ± 0.43	0.03						
C[C@H](CO)NC(=O)CCC/C=C\C/C=C\C/C=C\C/C=C\C(C)(C)CCCCn1ccnc1 [Compound O-4368]	90.5 ± 5	0.29	0.68	153 ± 5	0.25						
C[C@H](CO)NC(=O)CCC/C=C\C/C=C\C/C=C\C/C=C\C(C)(C)CCCCN1CCCCC1 [Compound O-4386]	92.8 ± 2.2	0.55	0.79	226 ± 24	0.7						
C[C@H](CO)NC(=O)CCC/C=C\C/C=C\C/C=C\C/C=C\C(C)(C)CCCCN1CCCC1 [Compound O-4388]	99.4 ± 5.9	0.38	0.42	404 ± 39	0.84						
CN[C@H](CC(=O)O)C(=O)O [NMDA, N-methyl D-aspartate, reference compound]						49					
CC(C)(C)NC[C@H](O)COc1nsnc1N1CCOCC1 [Timolol, timolol]							91.5 ± 10.2	30			
Cc1c(C(=O)c2cccc3ccccc23)c2cccc3c2n1[C@@H](CN1CCOCC1)CO3 [WIN 55-212-3, reference compound]									up to 120 min	significantly lowered	86.5 ± 2.5 % of Baseline
